Data on three molecules can be found in patent publication US20190315823A1, “SMALL CATIONIC ANTI-BIOFILM AND IDR PEPTIDES” (priority 2013, published 2019).

Peptide text beside a SMILES is read from it.

The subject of data set [1] is human peripheral blood mononuclear cells. The data set is classed as cell-based. The procedure: FIG. 18. Lack of cytotoxicity of immunomodulatory peptides against human peripheral blood mononuclear cells as determined by the low release of cytosolic lactate dehydrogenase.
Venous blood (20 ml) from healthy volunteers was collected in Vacutainer® collection tubes containing sodium heparin as an anticoagulant (Becton Dickinson, Mississauga, ON) in accordance with UBC ethical approval and guidelines. Blood was diluted 1:1 with complete RPMI 1640 medium and separated by centrifugation over a Ficoll-Paque® Plus (Amersham Biosciences, Piscataway, N.J., USA) density gradient. White blood cells were isolated from the buffy coat, washed twice in RPMI 1640 complete medium, and the number of peripheral blood mononuclear cells (PBMC) was determined by Trypan blue exclusion. PBMC (5×10^5) were seeded into 12-well tissue culture dishes (Falcon; Becton Dickinson) at 0.75 to 1×10^6 cells/ml at 37° C. in 5% CO2. The above conditions were chosen to mimic conditions for circulating blood monocytes entering tissues at the site of infection via extravasation.
Following incubation of the cells under various treatment regimens, the tissue culture supernatants were centrifuged at 1000×g for 5 min, then at 10,000×g for 2 min to obtain cell-free samples. […]
Cytotoxicity was assessed using the Lactate dehydrogenase assay. […] Amount of colour formed is detected as increased absorbance measured at […]. […]

For data set [2], the system named is P. aeruginosa. Particulars: de la Fuente-Núñez 2012; cited from earlier work.
Data set [3] deals with Pseudomonas aeruginosa (Pa) biofilm. Particulars: P. aeruginosa; de la Fuente-Núñez 2012; cited from earlier work.
Data set [4] deals with methicillin resistant S. aureus (Sa) biofilm. Type of data set: cell-based, Staphylococcus aureus. Conditions: peptide 5 μg/ml.
In data set [5] the test system is C. elegans. The data set is described as follows: C. elegans survival, uninfected (peptide toxicity). Particulars: peptide 20 μg/ml. Here is the method: The C. elegans survival assay was carried out as previously described (Brackman et al., 2011). […] 0.5 ml of this suspension of nematodes was transferred to the wells of a 24-well microtiter plate. An overnight bacterial culture was centrifuged, resuspended in the assay medium, and standardized to 10^8 CFU/ml. Next, 250 μl of this standardized suspension were added to each well, while 250 μl of sterile medium was added to the […]. Peptides were added to the test wells at a final concentration of 20 μg/ml. The assay plates were incubated at 25° C. for up to 2 days. The fraction of dead worms was determined by counting the number of dead worms and the total number of worms in each well, using a dissecting microscope. Peptides were tested at least four times in each assay, and each assay was repeated at least three times (n≥12).

In data set [6] the test system is Klebsiella pneumoniae (Kp) biofilm. Type of data set: cell-based. Conditions: peptide 10 μg/ml. The procedure:
Methods of assessment of anti-biofilm activity—Biofilm formation was initially analyzed using a static abiotic solid surface assay as described elsewhere (de la Fuente-Nunez et al., 2012). Dilutions (1/100) of overnight cultures were incubated in BM2 biofilm-adjusted medium [62 mM potassium phosphate buffer (pH 7), 7 mM (NH4)2SO4, 2 mM MgSO4, 10 μM FeSO4, 0.4% (wt/vol) glucose, 0.5% (wt/vol) Casamino Acids], or a nutrient medium such as Luria Broth, in polypropylene microtiter plates (Falcon, United States) in the absence (control) or presence of peptide. Peptide was added at time zero (prior to adding the diluted, overnight cultures) in varying concentrations, and the decrease in biofilm formation was recorded at 22-46 h for most bacteria. Planktonic cells were removed, biofilm cells adhering to the side of the tubes were stained with crystal violet, and absorbance at 595 nm was measured using a microtiter plate reader (Bio-Tek Instruments Inc., United States). Some peptides were screened against two Gram negative organisms, P. aeruginosa and K. pneumoniae using a Bioflux apparatus (AutoMate Scientific, Berkeley, Calif.; http://www.autom8.com/bioflux_biofilm.html), which allows for the high-throughput, real-time analysis of biofilms.

Data set [7] concerns G. mellonella. The data set is described as follows: G. mellonella survival, uninfected (peptide toxicity). Type of data set: in vivo. Conditions: peptide 20 μg/10 μl. The procedure: In brief, prior to injection in G. mellonella, bacterial cells were washed with PBS and then diluted to either 10^4 or 10^5 CFU per 10 μl. A Hamilton syringe was used to inject 10 μl in the G. mellonella last left proleg. The peptides (20 μg/10 μl) were administered by injecting 10 μl into a different proleg within 1 h after injecting the bacteria. Two control groups were used: the first group included uninfected larvae injected with PBS to monitor killing due to physical trauma; the second group included uninfected larvae receiving no treatment at all. Results from experiments in which one or more larvae in either control group died were discarded and the experiments were repeated. To evaluate the toxicity of the peptides, uninfected larvae were injected with peptides. Larvae were placed in the dark at 37° C. and were scored as dead or alive 24 h and 48 h post-infection. […] At least 20 larvae were injected for each treatment. For each treatment, data from at least six independent experiments were combined.

Data set [8] deals with P. aeruginosa biofilms. Particulars: compound alone; P. aeruginosa. The procedure: Peptides and various conventional antibiotics were analyzed by checkerboard titration into microtiter trays using CLSI methods (Wiegand, I., K. Hilpert, and R. E. W. Hancock. 2008. Nature Protocols 3:163-175), bacteria added and, after overnight incubation at 37° C., the residual biofilm assessed by the crystal violet method mentioned in the body of the grant, with an A595 of 0.2 considered as 100% biofilm inhibition. The effects of the peptide in reducing the minimal biofilm inhibitory concentration (MBIC) of the antibiotic and vice versa were assessed using the Fractional Inhibitory Concentration (FIC) method whereby ΣFTC=FICA+FICB=(CA/MICA)+(CB/MICB), where MBICA and MBICB are the MBICs of peptide A and antibiotic B alone, respectively, and CA and CB (expressed in μg/ml) are the MICs of the drugs in combination. This conventional clinical microbiology assay is interpreted as follows

Data set [9] concerns P. aeruginosa biofilm. The data set is classed as cell-based. Conditions: concentration that reduced biofilm growth by 50%.
In data set [10] the test system is S. aureus biofilm. The data set is classed as cell-based. Conditions: concentration that reduced biofilm growth by 50%.
Data set [11] deals with Pseudomonas aeruginosa (Pa) biofilm. The data set is described as follows: static abiotic solid surface (microtiter, crystal violet) / Bioflux biofilm inhibition screen. The data set is classed as cell-based. Particulars: peptide 10 μg/ml. In a few lines:
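Overnight cultures diluted 1/100 were grown in polypropylene microtiter plates in BM2 medium (pH 7, 0.4% glucose, 0.5% Casamino Acids) or Luria Broth, with peptide at varying concentrations added at time zero. After 22-46 h, adherent biofilm was stained with crystal violet and read at 595 nm. Selected peptides were also screened under flow in a Bioflux system.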

For the molecule `CC[C@H](C)[C@H](NC(=O)[C@H](CC(C)C)NC(=O)[C@@H](NC(=O)[C@H](CCCNC(=N)N)NC(=O)[C@@H](NC(=O)[C@@H](NC(=O)[C@H](CCCNC(=N)N)NC(=O)[C@H](CCCNC(=N)N)NC(=O)[C@@H](N)C(C)C)[C@@H](C)CC)C(C)C)C(C)C)C(=O)N[C@@H](CCCNC(=N)N)C(=O)N[C@@H](Cc1c[nH]c2ccccc12)C(=O)N[C@@H](C)C(N)=O` [HE8] (H-VRRIVRVLIRWA-NH2), the “Notes (toxicity)” value in data set [1] is listed as “Toxic”.

On to `CC[C@H](C)[C@H](NC(=O)[C@H](CCCNC(=N)N)NC(=O)[C@H](Cc1ccccc1)NC(=O)[C@H](CCCNC(=N)N)NC(=O)[C@@H](N)CCCCN)C(=O)N[C@@H](CCCNC(=N)N)C(=O)N[C@H](C(=O)N[C@@H](CCCNC(=N)N)C(=O)N[C@H](C(N)=O)C(C)C)C(C)C` [Peptide 1037] (H-KRFRIRVRV-NH2; N-terminus assumed), for which the “antimicrobial activity MIC” value in data set [2] was 304 µg/mL. Further, in data set [3], the “anti-biofilm activity IC50” value is 5 µg/mL.

`CC[C@H](C)[C@H](NC(=O)[C@H](CCCNC(=N)N)NC(=O)[C@@H](NC(=O)[C@H](C)NC(=O)[C@@H](NC(=O)[C@@H](NC(=O)[C@H](CC(C)C)NC(=O)[C@H](CCCNC(=N)N)NC(=O)[C@@H](N)C(C)C)[C@@H](C)CC)C(C)C)C(C)C)C(=O)N[C@@H](Cc1c[nH]c2ccccc12)C(=O)N[C@@H](CCCNC(=N)N)C(=O)N[C@@H](CCCNC(=N)N)C(N)=O` [Peptide 1018] (H-VRLIVAVRIWRR-NH2): in data set [4], the “% Biofilm Inhibition Sa” value is 67%. Moreover, the “C. elegans survival, No infection” value in data set [5] (24 h) was found to be 97 ± 4%; in data set [5] (48 h), 88 ± 9%. Besides, the “% Biofilm Inhibition Kp” value in data set [6] amounted to 99%. The “G. mellonella survival, No infection” value in data set [7] (24 h) and in [7] (48 h) was 90 ± 14% throughout. The “Minimal Biofilm Inhibitory Concentration (MBIC)” value in data set [8] turned out to be 24 µg/mL. Also, the “MBIC50 P. aeruginosa” value in data set [9] stood at 2.5 µg/mL. Further, the “MBIC50 S. aureus” value in data set [10] is 20 µg/mL. The “% Biofilm Inhibition Pa” value in data set [11] was determined as 99%.
